Measurements from patent US6503307B1, “Ink set, printing method, ink, printed article, printing apparatus, ink cartridge, recording unit, and process of forming polymeric compound films” (Canon Kabushiki Kaisha, priority 1999, dated 2003).

Assays:
[1] = Solubility in water; type: physicochemical; conditions: highest concentration forming a uniform transparent aqueous solution
From the text: In Table 1, the water solubility is shown by the highest concentration of the compound for forming a uniform transparent aqueous solution.

[2] = Reactivity: time for gel formation on mixing 50% solutions; type: physicochemical; conditions: 50% solution of Group B compound with aqueous 50% solution of Compound A-1

| Solubility [1] | Structure (SMILES) | Time for gel formation [2] |
| --- | --- | --- |
| 20% | NC1C(O)OC(CO)C(O)C1O (stereo not drawn) [Compound B-4] | 600 s |
| >30% | SCC(S)CS [Compound B-8] | 600 s |
| >30% | CCC(CS)(CS)CS [Compound B-10] | 600 s |
